Experimental data reported in US6914045B2, “Glycopeptide antibiotics” (Wyeth Holdings Corporation, priority 2001, dated 2005).
In brackets after ≈: the same amount, converted by molar mass.

Tests used:
[1] = system: Enterococcus sp.; assay: in vitro antibacterial evaluation, MIC by broth dilution; assay type: cell-based; settings: broth dilution, 18 hours at 35° C.; for MIC Enterococcus faecalis (GC 2242): strain GC 2242; for MIC Enterococcus faecalis (GC 2691): strain GC 2691; for MIC Enterococcus faecalis (GC 3059): strain GC 3059; for MIC Enterococcus faecalis (GC 4552): strain GC 4552
Method in brief: (§1)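 Broth dilution per NCCLS M7-A2 in Mueller-Hinton II medium, inoculum 5×10^5 CFU/mL, antibiotic range 64-0.06 μg/mL. MIC taken as lowest concentration inhibiting growth; Gram-positive panel includes recent clinical isolates resistant to methicillin, penicillin and/or vancomycin.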

[2] = system: Staphylococcus sp.; assay: as above; assay type: cell-based; settings: broth dilution, 18 hours at 35° C.
Method in brief: as §1

[3] = system: Streptococcus sp.; assay: as above; assay type: cell-based; settings: broth dilution, 18 hours at 35° C.; for MIC Streptococcus pneumoniae (ATCC 6301): strain ATCC 6301; for MIC Streptococcus pneumoniae (GC 1894): strain GC 1894; for MIC Streptococcus pyogenes (GC 4563): strain GC 4563; for MIC Streptococcus agalactiae (GC 4564): strain GC 4564; for MIC Streptococcus pneumoniae (GC 4565): strain GC 4565
Method in brief: as §1

[4] = system: Escherichia coli; assay: as above; assay type: cell-based; settings: 18 hours at 35° C.
Method in brief: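 Test organisms, which included recent clinical isolates resistant to methicillin, penicillin and/or vancomycin, were inoculated at 5×10^5 CFU/mL into Muller-Hinton II […] containing antibiotic at 64-0.06 μg/mL. Minimum inhibitory concentrations were then read as the lowest level inhibiting growth.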

[5] = clinical pathology (serum clinical chemistry) in mice; assay type: in vivo; settings: CD-1 mice, 20 mg/kg intravenously daily for 9 days, sera day 10
Description: 20-day-old CD-1 mice were divided into a vehicle control group (5 mice) and a treatment group (5 mice). Samples of glycopeptide antibiotics were administered at 20 mg/kg intravenously daily for 9 days.

[6] = anatomic pathology (histopathology of heart and kidney) in mice; assay type: in vivo; settings: CD-1 mice, 20 mg/kg intravenously daily for 9 days, necropsy day 10, microscopic histopathology
Description: Samples of tissues from necropsied mice were formalin-fixed, paraffin-embedded, sectioned, stained with hematoxylin and eosin, and examined microscopically. Histopathologic findings were recorded. These findings were subjectively graded on a scale corresponding to slight, mild, moderate, marked and severe as compared to untreated controls.

[7] = Enterococcus faecalis (ATCC 29212)
[8] = Enterococcus faecalis (GC 4553)
[9] = Enterococcus faecalis (GC 4554)
[10] = Enterococcus faecalis (GC 6189)

CC(c1ccccc1)C1NC(=O)CNC(=O)C(CO)NC(=O)C(CC2CNC(=N)N2C2OC(CO)C(O)C(O)C2O)NC(=O)C(CC2CNC(=N)N2)NC(=O)C(Cc2ccc(OC3OC(CO)C(OC4OC(CO)C(O)C(O)C4O)C(O)C3O)cc2)NC1=O (centres unmarked) [Example 277a]
MIC Enterococcus avium (GC 4558) ([1]; Enterococcus avium (GC 4558)): 128 mg/L (≈ 101 µM)
MIC Enterococcus faecalis (ATCC 29212) [1, 7]: >128 mg/L
MIC Enterococcus faecalis (GC 4553) [1, 8]: >128 mg/L
MIC Enterococcus faecalis (GC 4554) [1, 9]: >128 mg/L
MIC Enterococcus faecalis (GC 6189) [1, 10]: >128 mg/L
MIC Enterococcus faecium (GC 2243) ([1]; Enterococcus faecium (GC 2243)): >128 mg/L
MIC Enterococcus faecium (GC 4556) ([1]; Enterococcus faecium (GC 4556)): >128 mg/L
MIC Enterococcus faecium (GC 4557) ([1]; Enterococcus faecium (GC 4557)): 128 mg/L (≈ 101 µM)
MIC Enterococcus faecalis (ATCC 29212) ([1]; strain ATCC 29212): >128 mg/L
MIC Enterococcus faecalis (GC 2242) [1]: >128 mg/L
MIC Enterococcus faecium (GC 2243) ([1]; strain GC 2243): >128 mg/L
MIC Enterococcus faecalis (GC 2691) [1]: >128 mg/L
MIC Enterococcus faecalis (GC 3059) [1]: >128 mg/L
MIC Enterococcus faecalis (GC 4552) [1]: >128 mg/L
MIC Enterococcus faecalis (GC 4553) ([1]; strain GC 4553): >128 mg/L
MIC Enterococcus faecalis (GC 4554) ([1]; strain GC 4554): >128 mg/L
MIC Enterococcus faecium (GC 4556) ([1]; strain GC 4556): >128 mg/L
MIC Enterococcus faecium (GC 4557) ([1]; strain GC 4557): 128 mg/L (≈ 101 µM)
MIC Enterococcus avium (GC 4558) ([1]; strain GC 4558): 128 mg/L (≈ 101 µM)
MIC Enterococcus faecalis (GC 6189) ([1]; strain GC 6189): >128 mg/L
MIC Coagulase Negative Staphylococcus (GC 4547) [2]: >128 mg/L
MIC Coagulase Negative Staphylococcus (GC 4548) [2]: >128 mg/L
MIC Coagulase Negative Staphylococcus (GC 4549) [2]: >128 mg/L
MIC Coagulase Negative Staphylococcus (GC 4551) [2]: >128 mg/L
MIC Staphylococcus aureus (ATCC 29213) [2]: >128 mg/L
MIC Staphylococcus aureus (GC 1131) [2]: >128 mg/L
MIC Staphylococcus aureus (GC 3051) [2]: >128 mg/L
MIC Staphylococcus aureus (GC 3053) [2]: >128 mg/L
MIC Staphylococcus aureus (GC 4541) [2]: >128 mg/L
MIC Staphylococcus aureus (GC 4542) [2]: >128 mg/L
MIC Staphylococcus aureus (GC 4544) [2]: >128 mg/L
MIC Staphylococcus aureus (GC 4545) [2]: >128 mg/L
MIC Staphylococcus aureus-SMITH (GC 4543) [2]: >128 mg/L
MIC Staphylococcus haemolyticus (GC 4546) [2]: >128 mg/L
MIC Staphylococcus aureus (ATCC 29213) ([2]; strain ATCC 29213): >128 mg/L
MIC Staphylococcus aureus (GC 1131) ([2]; strain GC 1131): >128 mg/L
MIC Staphylococcus aureus (GC 3051) ([2]; strain GC 3051): >128 mg/L
MIC Staphylococcus aureus (GC 3053) ([2]; strain GC 3053): >128 mg/L
MIC Staphylococcus aureus (GC 4541) ([2]; strain GC 4541): >128 mg/L
MIC Staphylococcus aureus (GC 4542) ([2]; strain GC 4542): >128 mg/L
MIC Staphylococcus aureus (GC 4544) ([2]; strain GC 4544): >128 mg/L
MIC Staphylococcus aureus (GC 4545) ([2]; strain GC 4545): >128 mg/L
MIC Staphylococcus haemolyticus (GC 4546) ([2]; strain GC 4546): >128 mg/L
MIC Coagulase Negative Staphylococcus (GC 4547) ([2]; strain GC 4547): >128 mg/L
MIC Coagulase Negative Staphylococcus (GC 4548) ([2]; strain GC 4548): >128 mg/L
MIC Coagulase Negative Staphylococcus (GC 4549) ([2]; strain GC 4549): >128 mg/L
MIC Coagulase Negative Staphylococcus (GC 4551) ([2]; strain GC 4551): >128 mg/L
MIC Staphylococcus aureus-SMITH (GC 4543) ([2]; strain SMITH GC 4543): >128 mg/L
MIC Streptococcus pneumoniae (ATCC 6301) [3]: >128 mg/L
MIC Streptococcus pneumoniae (GC 1894) [3]: >128 mg/L
MIC Streptococcus pyogenes (GC 4563) [3]: >128 mg/L
MIC Streptococcus agalactiae (GC 4564) [3]: >128 mg/L
MIC Streptococcus pneumoniae (GC 4565) [3]: >128 mg/L
MIC Escherichia coli (ATCC 25922) [4]: >128 mg/L
MIC Escherichia coli (GC 4559) [4]: >128 mg/L
MIC Escherichia coli (GC 4560) [4]: >128 mg/L
Clinical Chemistry (Day 10) % of Control, BUN [5]: +110%
Anatomical Pathology (Day 10), Heart [6]: 0
Anatomical Pathology (Day 10), Kidney [6]: ++

CC(C)CC(=O)OC1C(OC2C(CO)OC(Oc3ccc(CC4NC(=O)C(C(C)c5ccccc5)NC(=O)CNC(=O)C(CO)NC(=O)C(CC5CNC(=N)N5C5OC(CO)C(O)C(O)C5O)NC(=O)C(CC5CNC(=N)N5)NC4=O)cc3)C(O)C2O)OC(CO)C(O)C1O (stereo not drawn) [Example 277b, Cyclo[3-(2-iminoimidazolidin-4-yl)alanyl-3-(3-hexogyranosyl-2-iminoimidazolidin-4-yl)-alanylserylglycyl-β-methylphenylalanyl-O-[4-O-[2-O-(3-methylbutanoyl)hexopyranosyl]-hexopyranosyl]tyrosyl]]
MIC Enterococcus avium (GC 4558) ([1]; Enterococcus avium (GC 4558)): >64 mg/L
MIC Enterococcus faecalis (ATCC 29212) [1, 7]: >64 mg/L
MIC Enterococcus faecalis (GC 4553) [1, 8]: >64 mg/L
MIC Enterococcus faecalis (GC 4554) [1, 9]: >64 mg/L
MIC Enterococcus faecalis (GC 6189) [1, 10]: >64 mg/L
MIC Enterococcus faecium (GC 2243) ([1]; Enterococcus faecium (GC 2243)): >64 mg/L
MIC Enterococcus faecium (GC 4556) ([1]; Enterococcus faecium (GC 4556)): >64 mg/L
MIC Enterococcus faecium (GC 4557) ([1]; Enterococcus faecium (GC 4557)): >64 mg/L
MIC Enterococcus faecalis (ATCC 29212) ([1]; strain ATCC 29212): >64 mg/L
MIC Enterococcus faecalis (GC 2242) [1]: >64 mg/L
MIC Enterococcus faecium (GC 2243) ([1]; strain GC 2243): >64 mg/L
MIC Enterococcus faecalis (GC 2691) [1]: >64 mg/L
MIC Enterococcus faecalis (GC 3059) [1]: >64 mg/L
MIC Enterococcus faecalis (GC 4552) [1]: >64 mg/L
MIC Enterococcus faecalis (GC 4553) ([1]; strain GC 4553): >64 mg/L
MIC Enterococcus faecalis (GC 4554) ([1]; strain GC 4554): >64 mg/L
MIC Enterococcus faecium (GC 4556) ([1]; strain GC 4556): >64 mg/L
MIC Enterococcus faecium (GC 4557) ([1]; strain GC 4557): >64 mg/L
MIC Enterococcus avium (GC 4558) ([1]; strain GC 4558): >64 mg/L
MIC Enterococcus faecalis (GC 6189) ([1]; strain GC 6189): >64 mg/L
MIC Coagulase Negative Staphylococcus (GC 4547) [2]: >64 mg/L
MIC Coagulase Negative Staphylococcus (GC 4548) [2]: >64 mg/L
MIC Coagulase Negative Staphylococcus (GC 4549) [2]: >64 mg/L
MIC Coagulase Negative Staphylococcus (GC 4551) [2]: >64 mg/L
MIC Coagulase Negative Staphylococcus (GC 6257) [2]: >64 mg/L
MIC Staphylococcus aureus (ATCC 29213) [2]: >64 mg/L
MIC Staphylococcus aureus (GC 1131) [2]: >64 mg/L
MIC Staphylococcus aureus (GC 3051) [2]: >64 mg/L
MIC Staphylococcus aureus (GC 3053) [2]: >64 mg/L
MIC Staphylococcus aureus (GC 4541) [2]: >64 mg/L
MIC Staphylococcus aureus (GC 4542) [2]: >64 mg/L
MIC Staphylococcus aureus (GC 4544) [2]: >64 mg/L
MIC Staphylococcus aureus (GC 4545) [2]: >64 mg/L
MIC Staphylococcus aureus-SMITH (GC 4543) [2]: >64 mg/L
MIC Staphylococcus haemolyticus (GC 4546) [2]: >64 mg/L
MIC Staphylococcus aureus (ATCC 29213) ([2]; strain ATCC 29213): >64 mg/L
MIC Staphylococcus aureus (GC 1131) ([2]; strain GC 1131): >64 mg/L
MIC Staphylococcus aureus (GC 3051) ([2]; strain GC 3051): >64 mg/L
MIC Staphylococcus aureus (GC 3053) ([2]; strain GC 3053): >64 mg/L
MIC Staphylococcus aureus (GC 4541) ([2]; strain GC 4541): >64 mg/L
MIC Staphylococcus aureus (GC 4542) ([2]; strain GC 4542): >64 mg/L
MIC Staphylococcus aureus (GC 4544) ([2]; strain GC 4544): >64 mg/L
MIC Staphylococcus aureus (GC 4545) ([2]; strain GC 4545): >64 mg/L
MIC Staphylococcus haemolyticus (GC 4546) ([2]; strain GC 4546): >64 mg/L
MIC Coagulase Negative Staphylococcus (GC 4547) ([2]; strain GC 4547): >64 mg/L
MIC Coagulase Negative Staphylococcus (GC 4548) ([2]; strain GC 4548): >64 mg/L
MIC Coagulase Negative Staphylococcus (GC 4549) ([2]; strain GC 4549): >64 mg/L
MIC Coagulase Negative Staphylococcus (GC 4551) ([2]; strain GC 4551): >64 mg/L
MIC Coagulase Negative Staphylococcus (GC 6257) ([2]; strain GC 6257): >64 mg/L
MIC Staphylococcus aureus-SMITH (GC 4543) ([2]; strain SMITH GC 4543): >64 mg/L
MIC Streptococcus pneumoniae (ATCC 6301) [3]: 64 mg/L (≈ 47.5 µM)
MIC Streptococcus pneumoniae (GC 1894) [3]: >64 mg/L
MIC Streptococcus pyogenes (GC 4563) [3]: >64 mg/L
MIC Streptococcus agalactiae (GC 4564) [3]: >64 mg/L
MIC Streptococcus pneumoniae (GC 4565) [3]: >64 mg/L
MIC Escherichia coli (ATCC 25922) [4]: >64 mg/L
MIC Escherichia coli (GC 4559) [4]: >64 mg/L
MIC Escherichia coli (GC 4560) [4]: 32 mg/L (≈ 23.7 µM)
Clinical Chemistry (Day 10) % of Control, ALT [5]: +164%
Clinical Chemistry (Day 10) % of Control, AST [5]: +138%
Clinical Chemistry (Day 10) % of Control, BUN [5]: +113%
Anatomical Pathology (Day 10), Heart [6]: 0
Anatomical Pathology (Day 10), Kidney [6]: +
